Literature values in patent publication US6057161A (priority 1997, dated 2000).
Where two headings read alike, the source gives them in different places.

SMILES	metabolism, accumulation or excretion (in words) (body)	time found in the urine after administration of heroin (in vivo)	further results
CN1[C@H]2CC[C@@H]1[C@@H](C(=O)O)[C@@H](OC(=O)c1ccccc1)C2 [Benzoylecgonine]	can be detected in the urine for a longer period of time than ecgonine methyl ester		
CCCCCc1cc(O)c2c(c1)OC(C)(C)[C@@H]1CCC(C(=O)O)=C[C@@H]21 [THC-COOH]	excreted in the urine as a glucuronic acid conjugate at detectable levels		
CN1CC[C@]23c4c5ccc(O)c4O[C@H]2[C@@H](O)C=C[C@H]3[C@H]1C5 [Morphine]		up to 40 hours	
CN1CC[C@]23c4c5ccc(O[C@@H]6O[C@H](C(=O)O)[C@@H](O)[C@H](O)[C@H]6O)c4O[C@H]2[C@@H](O)C=C[C@H]3[C@H]1C5 [Morphine-3-glucoronide, morphine-3-glucuronide]		up to 40 hours	
COC(=O)[C@H]1[C@@H](OC(=O)c2ccccc2)C[C@@H]2CC[C@H]1N2C [Cocaine]			metabolism, accumulation or excretion (in words) (in vivo): rapidly metabolized in the body
